Results on 4 compounds are retold here after patent publication US8178687B2, “Derivatives of pyrroloindole which are inhibitors of Hsp90, compositions containing same, and use thereof” (Sanofi-Aventis, priority 2009, dated 2012).

By IC50 is commonly meant the point on the concentration scale where inhibition reaches its midpoint. Lower therefore signals greater potency in that assay.

Chain of Hsp82 (P02829 whole entry): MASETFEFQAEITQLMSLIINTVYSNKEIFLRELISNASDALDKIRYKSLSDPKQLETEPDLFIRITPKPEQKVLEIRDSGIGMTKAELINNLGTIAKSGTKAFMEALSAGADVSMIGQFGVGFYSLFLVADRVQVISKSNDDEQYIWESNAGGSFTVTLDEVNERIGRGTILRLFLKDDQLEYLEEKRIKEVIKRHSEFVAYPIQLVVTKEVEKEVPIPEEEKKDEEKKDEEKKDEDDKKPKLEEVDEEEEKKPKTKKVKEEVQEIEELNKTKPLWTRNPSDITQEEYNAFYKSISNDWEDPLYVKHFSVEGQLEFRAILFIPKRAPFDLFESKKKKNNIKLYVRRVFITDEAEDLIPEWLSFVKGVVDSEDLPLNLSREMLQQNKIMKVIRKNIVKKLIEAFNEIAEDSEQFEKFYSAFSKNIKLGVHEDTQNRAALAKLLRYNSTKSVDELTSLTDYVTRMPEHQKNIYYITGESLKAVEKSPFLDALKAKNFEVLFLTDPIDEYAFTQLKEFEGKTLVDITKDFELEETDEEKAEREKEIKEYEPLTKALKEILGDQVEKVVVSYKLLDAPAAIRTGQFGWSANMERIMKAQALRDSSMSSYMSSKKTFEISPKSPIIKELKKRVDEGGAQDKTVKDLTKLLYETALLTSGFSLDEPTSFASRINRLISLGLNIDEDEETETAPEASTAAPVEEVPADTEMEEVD

In the experiment the target is Hsp82 (Saccharomyces cerevisiae, UniProt P02829). Nature of the experiment: Hsp82 ATPase activity, pyruvate kinase/lactate dehydrogenase enzymatic coupling method (NADH absorbance at 340 nm). It counts as biochemical. The following applies: 1 μM Hsp82, 250 μM ATP, 37° C., PK/LDH coupled, initial rate. An excerpt:
The formation of ADP due to the ATPase activity of Hsp82 was used to develop another method for evaluating the enzymatic activity of this enzyme by application of an enzymatic coupling system involving pyruvate kinase (PK) and lactate dehydrogenase (LDH). In this kinetic-type spectrophotometric method, PK catalyses the formation of ATP and of pyruvate from phosphoenol pyruvate (PEP) and the ADP produced by Hsp82. The pyruvate formed, which is a substrate for LDH, is subsequently converted to lactate in the presence of NADH. In this case, the decrease in NADH concentration, measured through the decrease in absorbance at the wavelength of 340 nm, is proportional to the concentration of ADP produced by Hsp82.
The products tested are incubated in a reaction volume of 100 μl of buffer composed of 100 mM Hepes-NaOH (pH 7.5), 5 mM MgCl2, 1 mM DTT, 150 mM KCl, 0.3 mM NADH, 2.5 mM PEP and 250 μM ATP. This mixture is preincubated at 37° C. for 30 minutes before the addition of 3.77 units of LDH and 3.77 units of PK. The reaction is initiated by addition of the product to be evaluated, in varying concentrations, and of Hsp82, at the concentration of 1 μM. The enzymatic activity of Hsp82 is then measured continuously, in a microplate reader, at 37° C., at the wavelength of 340 nm. The initial rate of the reaction is obtained by measuring the slope of the tangent to the origin of the curve recorded. The enzymatic activity is expressed in μM of ADP formed per minute. The effect of the various products tested is expressed as capacity for inhibiting the ATPase activity according to the codification below: […]
As to `O=C(NC1c2cccc(-c3nc4ccc(F)cc4[nH]3)c2-n2cccc21)c1ccnc2[nH]ccc12` (stereo not shown) [Example 1, 1H-pyrrolo[2,3-b]pyridine-4-carboxylic acid [5-(6-fluoro-1H-benzimidazol-2-yl)-9H-pyrrolo[1,2-a]indol-9-yl]amide], the IC50 is less than 1 µM.
Consider `O=C(NC1c2cccc(-c3cnc4ccccc4c3)c2-n2cccc21)c1ccnc2[nH]ccc12` (stereo not shown) [Example 2, 1H-pyrrolo[2,3-b]pyridine-4-carboxylic acid (5-quinolin-3-yl-9H-pyrrolo[1,2-a]indol-9-yl)amide], for which the half-maximal inhibitory concentration (IC50) was 1 to 10 µM.
The figure for `O=C(NC1c2cccc(-c3nc4ccncc4[nH]3)c2-n2cccc21)c1ccnc2[nH]ccc12` (stereo not shown) [Example 3, 1H-pyrrolo[2,3-b]pyridine-4-carboxylic acid [5-(3H-imidazo[4,5-c]pyridin-2-yl)-9H-pyrrolo[1,2-a]indol-9-yl]amide] is less than 1 µM; for `O=C(NC1c2cccc(-c3nc4ccncc4[nH]3)c2-n2cccc21)c1cc(Cl)nc2[nH]ccc12` (stereo not shown) [Example 4, 6-chloro-1H-pyrrolo[2,3-b]pyridine-4-carboxylic acid [5-(3H-imidazo[4,5-c]pyridin-2-yl)-9H-pyrrolo[1,2-a]indol-9-yl]amide] it is 1 to 10 µM.
